Source: patent publication US11045457B2, “Piperidinyl-3-(aryloxy)propanamides and propanoates” (priority 2018, dated 2021)

Each compound was assayed against SSTR4 (Homo sapiens (Human), UniProt P31391) (assay: Inhibition of forskolin stimulated cAMP in CHO-K1 cells overexpressing SSTR4).
Format: cell-based
Method: Inhibition of Forskolin Stimulated cAMP in Cells Overexpressing SSTR4
This cell-based assay measures the ability of compounds to inhibit forskolin stimulated cAMP in CHO-K1 cells overexpressing SSTR4. CHO-K1 cells overexpressing SSTR4 (CHO-SSTR4) are purchased from DiscoveRx (product code 95-0059C2). The CHO-SSTR4 cells are maintained in F12K media with 10% Fetal Bovine Serum (Hyclone), 1% Pen/Strep (Life Technologies), and 800 μg/mL G418 (Life Technologies). […] The next day, the culture media is removed from the cells and the cells are washed (added then removed) with Kreb's Ringer Buffer (ZenBio, KRB-1000 mL). […] The cells are incubated in […] for 30 minutes at room temperature. Cellular cAMP levels are detected with a HTRF LANCE Ultra cAMP kit (Perkin Elmer, catalog number TRF0264).
The assay is performed in accordance with the manufacturer's instructions. Five μL of diluted Eu-W8044 labeled streptavidin (dilution: 1:50 in cAMP Detection Buffer) is added to each well. Then 5 μL of diluted biotin cAMP (dilution: 1:150 in cAMP Detection Buffer) is added to each well. The plates are covered and allowed to incubate for 60 minutes at room temperature on a shaker. […] The pEC50 values are generated using Activity Base for Screening Data Management.

SSTR4, sequence (P31391 whole entry): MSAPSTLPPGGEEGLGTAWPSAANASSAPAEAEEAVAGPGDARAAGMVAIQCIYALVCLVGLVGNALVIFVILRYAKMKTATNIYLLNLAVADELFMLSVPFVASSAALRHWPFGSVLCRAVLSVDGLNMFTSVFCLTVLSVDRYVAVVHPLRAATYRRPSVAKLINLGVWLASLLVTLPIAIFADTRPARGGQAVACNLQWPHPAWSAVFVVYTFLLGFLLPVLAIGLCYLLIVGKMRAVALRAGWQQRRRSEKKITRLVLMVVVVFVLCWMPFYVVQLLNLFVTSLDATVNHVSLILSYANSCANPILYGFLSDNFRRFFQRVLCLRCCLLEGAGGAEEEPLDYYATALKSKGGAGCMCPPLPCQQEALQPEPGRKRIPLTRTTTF

| Structure (SMILES) | SSTR4 Activity pEC50 |
| --- | --- |
| Cc1cccnc1OCC1(C(=O)NC2CCN(C)CC2)CC1 [Example 63, N-(1-methylpiperidin-4-yl)-1-(((3-methylpyridin-2-yl)oxy)methyl)cyclopropane-1-carboxamide] | 5.8 |
| CN1CCC(NC(=O)C(C)(C)COc2ccc(C#N)cc2C(F)(F)F)CC1 [Example 73, 3-(4-cyano-2-(trifluoromethyl)phenoxy)-2,2-dimethyl-N-(1-methylpiperidin-4-yl)propanamide] | 7.0 |
| CN1CCC(NC(=O)C(C)(C)COc2ccccc2)CC1 [Example 74, 2,2-dimethyl-N-(1-methylpiperidin-4-yl)-3-phenoxypropanamide] | 6.4 |
| Cc1c(C#N)cccc1OCC(C)(C)C(=O)NC1CCN(C)CC1 [Example 75, 3-(3-cyano-2-methylphenoxy)-2,2-dimethyl-N-(1-methylpiperidin-4-yl)propanamide] | 5.5 |
| Cc1cccc(C#N)c1OCC(C)(C)C(=O)NC1CCN(C)CC1 [Example 77, 3-(2-cyano-6-methylphenoxy)-2,2-dimethyl-N-(1-methylpiperidin-4-yl)propanamide] | 6.4 |
| CN1CCC(NC(=O)C(C)(C)COc2cccc3c2CCC3)CC1 [Example 79, 3-((2,3-dihydro-1H-inden-4-yl)oxy)-2,2-dimethyl-N-(1-methylpiperidin-4-yl)propanamide] | 7.0 |
| CN1CCC(NC(=O)C(C)(C)COc2nccnc2C2CC2)CC1 [Example 80, 3-((3-cyclopropylpyrazin-2-yl)oxy)-2,2-dimethyl-N-(1-methylpiperidin-4-yl)propanamide] | 6.1 |
| CN1CCC(NC(=O)C2(COc3ccccc3Cl)CC2)CC1 [Example 81, 1-((2-chlorophenoxy)methyl)-N-(1-methylpiperidin-4-yl)cyclopropane-1-carboxamide] | 6.3 |
| Cc1cnc(OCC(C)(C)C(=O)NC2CCN(C)CC2)c(Cl)c1 [Example 82, 3-((3-chloro-5-methylpyridin-2-yl)oxy)-2,2-dimethyl-N-(1-methylpiperidin-4-yl)propanamide] | 7.0 |
| Cc1ccc(C)c(OCC(C)(C)C(=O)NC2CCN(C)CC2)n1 [Example 83, 3-((3,6-dimethylpyridin-2-yl)oxy)-2,2-dimethyl-N-(1-methylpiperidin-4-yl)propanamide] | 7.3 |
| CCc1cccnc1OCC(C)(C)C(=O)NC1CCN(C)CC1 [Example 85, 3-((3-ethylpyridin-2-yl)oxy)-2,2-dimethyl-N-(1-methylpiperidin-4-yl)propanamide] | 7.1 |
| CCc1cccnc1OCC(C)(C)C(=O)N[C@@H]1CCN(C)C1 [Example 86, (R)-3-((3-ethylpyridin-2-yl)oxy)-2,2-dimethyl-N-(1-methylpyrrolidin-3-yl)propanamide] | 7.3 |
| CCc1nccnc1OCC(C)(C)C(=O)NC1CCN(C)CC1 [Example 87, 3-((3-ethylpyrazin-2-yl)oxy)-2,2-dimethyl-N-(1-methylpiperidin-4-yl)propanamide] | 6.4 |
| Cc1ccnc(OCC(C)(C)C(=O)NC2CCN(C)CC2)c1C [Example 88, 3-((3,4-dimethylpyridin-2-yl)oxy)-2,2-dimethyl-N-(1-methylpiperidin-4-yl)propanamide] | 6.6 |
| CN1CCC(NC(=O)C2(COc3ncccc3C3CC3)CCC2)CC1 [Example 89, 1-(((3-cyclopropylpyridin-2-yl)oxy)methyl)-N-(1-methylpiperidin-4-yl)cyclobutane-1-carboxamide] | 6.8 |
| CN1CCC(NC(=O)C(C)(C)COc2ncccc2C(F)F)CC1 [Example 90, 3-((3-(difluoromethyl)pyridin-2-yl)oxy)-2,2-dimethyl-N-(1-methylpiperidin-4-yl)propanamide] | 6.6 |
| Cc1cc(C(F)(F)F)cnc1OCC(C)(C)C(=O)NC1CCN(C)CC1 [Example 91, 2,2-dimethyl-3-((3-methyl-5-(trifluoromethyl)pyridin-2-yl)oxy)-N-(1-methylpiperidin-4-yl)propanamide] | 6.0 |
| CCc1ccccc1OCC(C)(C)C(=O)NC1CN(C)CC1c1ccccc1 (centres unmarked) [Example 97, 3-(2-ethylphenoxy)-2,2-dimethyl-N-(1-methyl-4-phenylpyrrolidin-3-yl)propanamide] | 7.9 |
| CN1CCC(NC(=O)C(C)(C)COc2nnc(Cl)cc2C(F)(F)F)CC1 [Example 98, 3-((6-chloro-4-(trifluoromethyl)pyridazin-3-yl)oxy)-2,2-dimethyl-N-(1-methylpiperidin-4-yl)propanamide] | 6.2 |
| CN1CCC(NC(=O)C(C)(C)COc2nccc3occc23)CC1 [Example 99, 3-(furo[3,2-c]pyridin-4-yloxy)-2,2-dimethyl-N-(1-methylpiperidin-4-yl)propanamide] | 7.1 |
| CN1CCC(NC(=O)C(C)(C)COc2ncc(Br)cc2C(F)(F)F)CC1 [Example 100, 3-((5-bromo-3-(trifluoromethyl)pyridin-2-yl)oxy)-2,2-dimethyl-N-(1-methylpiperidin-4-yl)propanamide] | 7.2 |
| Cc1cnc(OCC(C)(C)C(=O)NC2CCN(C)CC2)c(C(F)(F)F)c1 [Example 101, 2,2-dimethyl-3-((5-methyl-3-(trifluoromethyl)pyridin-2-yl)oxy)-N-(1-methylpiperidin-4-yl)propanamide] | 7.3 |
| CN1CCC(NC(=O)C(C)(C)COc2ncccc2C(F)(F)F)C(C)(C)C1 (centres unmarked) [Example 112, 2,2-dimethyl-3-((3-(trifluoromethyl)pyridin-2-yl)oxy)-N-(1,3,3-trimethylpiperidin-4-yl)propanamide] | 6.1 |
| CN1CCC(NC(=O)C(C)(C)COc2ncccc2C(F)(F)F)C(F)C1 (centres unmarked) [Example 113, N-(3-fluoro-1-methylpiperidin-4-yl)-2,2-dimethyl-3-((3-(trifluoromethyl)pyridin-2-yl)oxy)propanamide] | 5.9 |
| CN1CCC(NC(=O)C(C)(C)COc2ncccc2C(F)(F)F)C(F)(F)C1 (centres unmarked) [Example 118, N-(3,3-difluoro-1-methylpiperidin-4-yl)-2,2-dimethyl-3-((3-(trifluoromethyl)pyridin-2-yl)oxy)propanamide] | 6.2 |
| CN1CCC(NC(=O)C(C)(C)COc2ncccc2C(F)(F)F)C(Cl)C1 (centres unmarked) [Example 120, N-(3-chloro-1-methylpiperidin-4-yl)-2,2-dimethyl-3-((3-(trifluoromethyl)pyridin-2-yl)oxy)propanamide] | 5.9 |
| Cc1cnc(OCC(C)(C)C(=O)N[C@H]2CCN(C)C[C@@H]2F)c(C)c1 [Example 122, 3-((3,5-dimethylpyridin-2-yl)oxy)-N-((3S,4S)-3-fluoro-1-methylpiperidin-4-yl)-2,2-dimethylpropanamide] | 6.6 |
| CC(C)(COc1ncccc1C(F)(F)F)C(=O)NC1CNCC1(F)F (centres unmarked) [Example 131, N-(4,4-difluoropyrrolidin-3-yl)-2,2-dimethyl-3-((3-(trifluoromethyl)pyridin-2-yl)oxy)propanamide] | 6.1 |
| CN1CCC(NC(=O)C(C)(C)COc2ncccc2C(F)(F)F)CC1(C)C (centres unmarked) [Example 132, 2,2-dimethyl-3-((3-(trifluoromethyl)pyridin-2-yl)oxy)-N-(1,2,2-trimethylpiperidin-4-yl)propanamide] | 7.1 |
